The values below come from ChEMBL document CHEMBL5226375, “Synthesis and Comprehensive in Vivo Activity Profiling of Olean-12-en-28-ol, 3β-Pentacosanoate in Experimental Autoimmune Encephalomyelitis: A Natural Remyelinating and Anti-Inflammatory Agent” (J Nat Prod, 2023).

Active and inactive are the calls of the source. No cut-off for these calls is given here.

For test [1], the system named is Mus musculus. Nature of the test: Anti-inflammatory activity against MOG35-55-induced experimental autoimmune encephalomyelitis C57BL/6 mouse model assessed as methylation of CpG sites of IL17A gene promoter in brain at 600 mg/kg, ig for 14 days starting from 12th day of immunization by PCR analysis (reference value: 58 +/-6%). In kind it is functional. Conditions: time 14 day.

Test [2] concerns Mus musculus. Nature of the test: Anti-inflammatory activity against MOG35-55-induced experimental autoimmune encephalomyelitis C57BL/6 mouse model assessed as reduction in IL-6 protein expression in brain at 300 to 600 mg/kg/day, ig for 14 days starting from 12th day of immunization by western blot analysis. Format: functional, organism-based. Particulars: dose 300-600 mg/kg/day, time 14.0 day. On the technique in general: Immunoblotting shows a protein as a band on a membrane.

Test [3] has as its system Mus musculus. Nature of the test: Anti-inflammatory activity against MOG35-55-induced experimental autoimmune encephalomyelitis C57BL/6 mouse model assessed as increase in serum IL-4 level at 600 mg/kg/day, ig for 14 days starting from 12th day of immunization by ELISA. In kind it is functional, organism-based. Particulars: time 14.0 day.
Test [4] concerns Mus musculus. Nature of the test: Anti-inflammatory activity against MOG35-55-induced experimental autoimmune encephalomyelitis C57BL/6 mouse model assessed as fold change in NFKB gene expression in brain at 600 mg/kg/day, ig for 14 days starting from 12th day of immunization by RT-qPCR analysis relative to control. Format: functional. Conditions: time 14 day.
Test [5] concerns Mus musculus. Nature of the test: Anti-inflammatory activity against MOG35-55-induced experimental autoimmune encephalomyelitis C57BL/6 mouse model assessed as fold change in CXCL9 gene expression in brain at 300 mg/kg/day, ig for 14 days starting from 12th day of immunization by RT-qPCR analysis relative to control. Format: functional. Particulars: time 14 day. In general terms: Real-time PCR tracks product formation cycle by cycle.

The subject of test [6] is Mus musculus. As to the kind of experiment: Anti-inflammatory activity against MOG35-55-induced experimental autoimmune encephalomyelitis C57BL/6 mouse model assessed as fold change in TNF-alpha gene expression in brain at 300 mg/kg/day, ig for 14 days starting from 12th day of immunization by RT-qPCR analysis relative to control. Format: functional. Conditions: time 14 day.

For test [7], the system named is Mus musculus. Nature of the test: Anti-inflammatory activity against MOG35-55-induced experimental autoimmune encephalomyelitis C57BL/6 mouse model assessed as fold change in BCL2 gene expression in brain at 600 mg/kg/day, ig for 14 days starting from 12th day of immunization by RT-qPCR analysis relative to control. Conditions: time 14 day. In kind it is functional.

The test system of test [8] is Mus musculus. Nature of the test: Anti-inflammatory activity against MOG35-55-induced experimental autoimmune encephalomyelitis C57BL/6 mouse model assessed as reduction in serum Th1 cytokine level by measuring reduction in IL-2 level at 600 mg/kg/day, ig for 14 days starting from 12th day of immunization by ELISA. In kind it is functional, organism-based. Conditions: time 14.0 day. (In general: An ELISA detects its analyte on a solid surface through an enzyme-linked reagent.)

The subject of test [9] is Mus musculus. As to the kind of experiment: Anti-inflammatory activity against MOG35-55-induced experimental autoimmune encephalomyelitis C57BL/6 mouse model assessed as reduction in serum […] cytokine level by measuring reduction in IL-17 level at 600 mg/kg/day, ig for 14 days starting from 12th day of immunization by ELISA. Format: functional, organism-based. Particulars: time 14.0 day.

Test [10] concerns Mus musculus. As to the kind of experiment: Anti-inflammatory activity against MOG35-55-induced experimental autoimmune encephalomyelitis C57BL/6 mouse model assessed as reduction in EAE symptoms by measuring reduction in cumulative scores at 600 mg/kg/day, ig for 14 days starting from 12th day of immunization and measured from day 12 to 38 post-immunization. Particulars: time 1-26 day. In kind it is functional, organism-based.

Test [11] has as its system Mus musculus. Nature of the test: Anti-inflammatory activity against MOG35-55-induced experimental autoimmune encephalomyelitis C57BL/6 mouse model assessed as fold change in MMP9 gene expression in brain at 600 mg/kg/day, ig for 14 days starting from 12th day of immunization by RT-qPCR analysis relative to control. Format: functional. Particulars: time 14 day.
Test [12] has as its system Mus musculus. Nature of the test: Anti-inflammatory activity against MOG35-55-induced experimental autoimmune encephalomyelitis C57BL/6 mouse model assessed as fold change in CD4 gene expression in brain at 600 mg/kg/day, ig for 14 days starting from 12th day of immunization by RT-qPCR analysis relative to control. Format: functional. Conditions: time 14 day.
For test [13], the system named is Mus musculus. As to the kind of experiment: Anti-inflammatory activity against MOG35-55-induced experimental autoimmune encephalomyelitis C57BL/6 mouse model assessed as fold change in CXCL10 gene expression in brain at 0.15 mg/kg/day, ig for 14 days starting from 12th day of immunization by RT-qPCR analysis relative to control. Format: functional. Particulars: time 14 day.

The test system of test [14] is Mus musculus. As to the kind of experiment: Anti-inflammatory activity against MOG35-55-induced experimental autoimmune encephalomyelitis C57BL/6 mouse model assessed as reduction in serum chemokines level by measuring reduction in IL-3 level at 0.3 mg/kg/day, ig for 14 days starting from 12th day of immunization by ELISA. Format: functional, organism-based. Particulars: time 14.0 day.

Test [15] concerns Mus musculus. As to the kind of experiment: Anti-inflammatory activity against MOG35-55-induced experimental autoimmune encephalomyelitis C57BL/6 mouse model assessed as methylation of CpG sites of TGFB1 gene promoter in brain at […], ig for 14 days starting from 12th day of immunization by PCR analysis (reference value: 18.3 +/-4%). Format: functional. Conditions: time 14 day.

Test [16] has as its system Mus musculus. Nature of the test: Anti-inflammatory activity against MOG35-55-induced experimental autoimmune encephalomyelitis C57BL/6 mouse model assessed as methylation of CpG sites of […] gene promoter in brain at […], ig for 14 days starting from 12th day of immunization by PCR analysis (reference value: 45 +/-7%). Format: functional. Particulars: time 14 day.

Test [17] deals with Mus musculus. Nature of the test: Anti-inflammatory activity against MOG35-55-induced experimental autoimmune encephalomyelitis C57BL/6 mouse model assessed as methylation of CpG sites of IL17A gene promoter in brain at […], ig for 14 days starting from 12th day of immunization by PCR analysis (reference value: 58 +/-6%). Format: functional. Conditions: time 14 day.
For test [18], the system named is Mus musculus. As to the kind of experiment: Anti-inflammatory activity against MOG35-55-induced experimental autoimmune encephalomyelitis C57BL/6 mouse model assessed as fold change in CCL5 gene expression in brain at 0.3 mg/kg/day, ig for 14 days starting from 12th day of immunization by RT-qPCR analysis relative to control. In kind it is functional. Particulars: time 14 day.

In test [19] the test system is Mus musculus. As to the kind of experiment: Anti-inflammatory activity against MOG35-55-induced experimental autoimmune encephalomyelitis C57BL/6 mouse model assessed as reduction in serum Th1 cytokine level by measuring reduction in TNF-alpha level at 0.3 mg/kg/day, ig for 14 days starting from 12th day of immunization by ELISA. In kind it is functional, organism-based. Conditions: time 14.0 day.

In test [20] the test system is Mus musculus. Nature of the test: Anti-inflammatory activity against MOG35-55-induced experimental autoimmune encephalomyelitis C57BL/6 mouse model assessed as fold change in PLP gene expression in brain at 0.3 mg/kg/day, ig for 14 days starting from 12th day of immunization by RT-qPCR analysis relative to control. In kind it is functional. Particulars: time 14 day.

The subject of test [21] is Mus musculus. Nature of the test: Anti-inflammatory activity against MOG35-55-induced experimental autoimmune encephalomyelitis C57BL/6 mouse model assessed as reduction in serum chemokines level by measuring reduction in FASL level at 0.3 mg/kg/day, ig for 14 days starting from 12th day of immunization by ELISA. Format: functional, organism-based. Particulars: time 14.0 day.

Test [22] deals with Mus musculus. Nature of the test: Anti-inflammatory activity against MOG35-55-induced experimental autoimmune encephalomyelitis C57BL/6 mouse model assessed as fold change in CXCL10 gene expression in brain at 0.3 mg/kg/day, ig for 14 days starting from 12th day of immunization by RT-qPCR analysis relative to control. Format: functional. Particulars: time 14 day.
The subject of test [23] is Mus musculus. As to the kind of experiment: Anti-inflammatory activity against MOG35-55-induced experimental autoimmune encephalomyelitis C57BL/6 mouse model assessed as methylation of CpG sites of IL10RA gene promoter in brain at […], ig for 14 days starting from 12th day of immunization by PCR analysis (reference value: 34.9 +/-4%). Format: functional. Conditions: time 14 day.

Regarding `CCCCCCCCCCCCCCCCCCCCCCCCC(=O)O[C@H]1CC[C@]2(C)[C@H]3CC=C4[C@@H]5CC(C)(C)CC[C@]5(CO)CC[C@@]4(C)[C@]3(C)CC[C@H]2C1(C)C`, the Activity with Mus musculus [1] turned out to be 68.3%. Further, the result in the test with Mus musculus [2], in the test with Mus musculus [3], with Mus musculus [8], with Mus musculus [9] and in the test with Mus musculus [10] was Active. For the same compound, the “fold change (FC)” value was 1.46 with Mus musculus [4]; 1.63 in the test on Mus musculus [5]; 1.76 in the test with Mus musculus [6]; 1.68 with Mus musculus [7]; 2.8 with Mus musculus [11]; 1.55 in the test with Mus musculus [12].

In the case of `CCCCCCCCc1ccc(CCC(N)(CO)CO)cc1` [FINGOLIMOD], the “fold change (FC)” value in the test with Mus musculus [13] is recorded as 5.21; with Mus musculus [18] it was -1.06; with Mus musculus [20], -2.32; in the test with Mus musculus [22] it was 2.17. In addition, the result in the test with Mus musculus [14], in the test on Mus musculus [19] and with Mus musculus [21] was Active. The Activity is 35.1% in the test with Mus musculus [15], 44.9% with Mus musculus [16], 58.9% in the test with Mus musculus [17] and 51% in the test with Mus musculus [23].
